Results published in paper PMC6792352, “Limited Chemical Structural Diversity Found to Modulate Thyroid Hormone Receptor in the Tox21 Chemical Library” (Environmental Health Perspectives, 2019).
Counter-ions that a name gives are not always drawn.

Assay: in vitro
Conditions: rat, gh3-tre-luc cells

Row | SMILES | CC50 at 24 h (AC50 (uM) modified / 1000) [µM] | other results
1 | CCCCCCCCOC(=O)c1ccc(C(=O)OCCCCCCCC)c(C(=O)OCCCCCCCC)c1 [Trioctyl trimellitate] | > 90 | 
2 | CC[C@@H](O)C(C[C@@H](C)N(C)C)(c1ccccc1)c1ccccc1 [(+)-alpha-Methadol hydrochloride] |  | CC50 at 24 h (AC50 (uM) modified / 1000, Tox21_110001=Tox21_112828, viability, 1 nM T3 present, 24 h): > 100 µM
3 | CCSC(=O)N(CC)C1CCCCC1 [Cycloate] | > 90 | 
4 | CCC(=O)Oc1ccc2c(c1)CC[C@@H]1[C@@H]2CC[C@]2(C)[C@@H](OC(=O)CC)CC[C@@H]12 [Estradiol dipropionate] | > 50 | 
5 | O=C(OCC(COC(=O)c1cccnc1)(COC(=O)c1cccnc1)COC(=O)c1cccnc1)c1cccnc1 [Niceritrol] | > 50 | 
6 | CN1CCN(C2=Nc3ccccc3Oc3ccc(Cl)cc32)CC1 [Loxapine succinate] | 7.25 | 
7 | O=C(O)C1CCC(C(=O)O)CC1 (stereo not shown) [1,4-Cyclohexanedicarboxylic acid] | > 90 | 
8 | O=C(O)CCC/C=C\C[C@H]1[C@H](/C=C/[C@H](O)COc2cccc(Cl)c2)[C@@H](O)C[C@H]1O [Cloprostenol sodium] | > 50 | 
9 | CCCCCCCCCCCCCCOS(=O)(=O)O [Sodium myristyl sulfate] | 32 | 
10 | CCCCCC[n+]1ccccc1 [1-Hexylpyridinium bromide] | > 90 | 
11 | COC(=O)C1=C(C#N)NC(C)=C(C(=O)OC(C)C)C1c1cccc([N+](=O)[O-])c1 (stereo not shown) [Nilvadipine] | 27.9 | 
12 | OCCSCSCCO [2,2'-(Methanediyldisulfanediyl)diethanol] |  | CC50 at 24 h (AC50 (uM) modified / 1000, Tox21_110001=Tox21_301758, viability, 1 nM T3 present, 24 h): > 90 µM
13 | C[N+](C)(C)CCOC(=O)CCC(=O)OCC[N+](C)(C)C [Succinylcholine chloride] | > 50 | 
14 | C1CCC(C2CCCCC2)CC1 [Dicyclohexyl] |  | CC50 at 24 h (AC50 (uM) modified / 1000, Tox21_110001=Tox21_302104, viability, 1 nM T3 present, 24 h): > 90 µM
15 | ClC(Cl)c1ccccc1 [Benzal chloride] | > 90 | 
16 | CNC(=O)Oc1ccccc1OC(C)C [Propoxur] | > 90 | 

Row | SMILES | CC50 at 24 h (AC50 (uM) modified / 1000) [µM] | other results
17 | O=[N+]([O-])c1ccc(/C=N\O)o1 [Nifuroxime] | > 50 | 
18 | CC(C)(Sc1cc(C(C)(C)C)c(O)c(C(C)(C)C)c1)Sc1cc(C(C)(C)C)c(O)c(C(C)(C)C)c1 [Probucol] | > 20 | 
19 | C[C@H]1[C@H](O)O[C@@H]2O[C@@]3(C)CC[C@H]4[C@H](C)CC[C@@H]1[C@@]24OO3 [Artenimol] | 1.39 | 
20 | C[Si](Cl)(c1ccccc1)c1ccccc1 [Chloro(methyl)diphenylsilane] | > 90 | 
21 | CC(C)NCC(O)c1cc(O)cc(O)c1 (stereo not shown) [Orciprenaline sulfate] | > 50 | 
22 | Clc1ccccc1-c1nc(-c2ccncc2)no1 [Pifexole] | > 50 | 
23 | COc1ccc(C[C@@H]2c3cc(OC)c(OC)cc3CC[N@+]2(C)CCC(=O)OCCCCCOC(=O)CC[N@@+]2(C)CCc3cc(OC)c(OC)cc3[C@H]2Cc2ccc(OC)c(OC)c2)cc1OC [Atracurium besylate] | > 20 | 
24 | C[C@H]1C[C@@H]2[C@H]([C@@H](O)C[C@@]3(C)[C@H]2CC[C@]3(O)C(=O)COC(=O)CCC(=O)O)[C@@]2(C)C=CC(=O)C=C12 [Methylprednisolone succinate] | > 50 | 
25 | CCCCCCCCOS(=O)(=O)O [Sodium octyl sulfate] | > 90 | 
26 | CS(=O)(=O)CCNCc1ccc(-c2ccc3ncnc(Nc4ccc(OCc5cccc(F)c5)c(Cl)c4)c3c2)o1 [Lapatinib] | > 50 | 
27 | CC(C)=CCC/C(C)=C/COC=O [(2E)-3,7-Dimethylocta-2,6-dien-1-yl formate] | > 90 | 
28 | CC1C(=O)C[C@]2(C(C)C)C[C@H]12 (single isomer, unassigned; (-)) [(-)-alpha,beta-Thujone] |  | CC50 at 24 h (AC50 (uM) modified / 1000, Tox21_110001=Tox21_301840, viability, 1 nM T3 present, 24 h): > 80 µM
29 | O=[N+]([O-])c1ccc2c(c1)Cc1ccccc1-2 [2-Nitrofluorene] | > 90 | 
30 | CN1CC[C@H](c2c(O)cc(O)c3c(=O)cc(-c4ccccc4Cl)oc23)[C@H](O)C1 [Flavopiridol hydrochloride] | 0.302 | 
31 | O=C(CCBr)N1CCN(C(=O)CCBr)CC1 [Pipobroman] | > 50 | 
